Assay results as given in patent US9211296B2, “Therapeutic compounds for blocking DNA synthesis of POX viruses” (priority 2007, dated 2015).

Tested on: vaccinia virus
Type: cell-based
Conditions: not given
For Blocking the replication of vaccinia virus in cells in this document: test concentration or dose not given here.

SMILES | Blocking the replication of vaccinia virus in cells
CN(C)CC/N=c1\cc(-c2ccccc2)oc2ccc(Cl)cc12 [I, (E)-N-1-(6-chloro-2-phenyl-4H-chromen-4-ylidene)-N2,N2-dimethylethane-1,2-diamine] | effective in blocking the replication of vaccinia virus in cells
O=c1cc(-c2ccc(O)cc2)oc2cc(O)cc(O)c12 [V, Apigenin] | effective in blocking the replication of vaccinia virus in cells
CCOC(=O)c1c(NC(=O)/C=C/C(=O)O)sc(C)c1-c1ccccc1 [XXVIII, (E)-4-(3-(ethoxycarbonyl)-5-methyl-4-phenylthiophen-2-ylamino)-4-oxobut-2-enoic acid] | effective in blocking the replication of vaccinia virus in cells
Cc1csc2c(N3CCN(C(=O)NC(C)(C)C)CC3)ncnc12 [XIX, N-tert-butyl-4-(7-methylthieno[3,2-d]pyrimidin-4-yl)piperazine-1-carboxamide] | effective in blocking the replication of vaccinia virus in cells
COc1ccc2c(C)nc(N=C(N)N=C(C)c3ccccc3C(=O)O)nc2c1 [XXIII, Benzoic acid, 2-[1-[[amino[(7-methoxy-4-methyl-2-quinazolinyl)imino]methyl]imino]ethyl]-(9CI)] | effective in blocking the replication of vaccinia virus in cells
Cc1cc(OC(=O)c2ccco2)nc(SCc2c(Cl)cccc2Cl)n1 [XII, 2-(2,6-dichlorobenzylthio)-6-methylpyrimidin-4-yl furan-2-carboxylate] | effective in blocking the replication of vaccinia virus in cells
CCS(=O)(=O)N1CCN=C1SCc1ccc(Cl)cc1Cl [XI, 1H-Imidazole, 2-[[(2,4-dichlorophenyl)methyl]thio]-1-(ethylsulfonyl)-4,5-dihydro-(9CI)] | effective in blocking the replication of vaccinia virus in cells
Cc1ccc2c(Sc3ccc(Cl)cc3)c(C(=O)O)[nH]c2c1 [XIV, 3-(4-chlorophenylthio)-6-methyl-1H-indole-2-carboxylic acid] | effective in blocking the replication of vaccinia virus in cells
CN(C)CCOC(=O)c1ccc2[nH]c3c(c2c1)CSCC3 [XXIX, Thiopyrano[4,3-b]indole-8-carboxylic acid, 1,3,4,5-tetrahydro-, 2-(dimethylamino)ethyl ester (7CI,8CI,9CI)] | effective in blocking the replication of vaccinia virus in cells
CN(C)c1ccc(-c2cccc(-c3ccc(N(C)C)cc3)[o+]2)cc1 [XXX, 2,6-bis(4-(dimethylamino)phenyl)pyrylium] | effective in blocking the replication of vaccinia virus in cells
CCn1c2ccccc2c2ccc(/C=N/n3cnnc3)cc21 [XXIV, (E)-N-((9-ethyl-9H-carbazol-2-yl)methylene)-4H-1,2,4-triazol-4-amine] | effective in blocking the replication of vaccinia virus in cells
Cn1cc(C2=C(c3cn(CCCSC(=N)N)c4ccccc34)C(=O)NC2=O)c2ccccc21 [VI, Carbamimidothioic acid, 3-[3-[2,5-dihydro-4-(1-methyl-1H-indol-3-yl)-2,5-dioxo-1H-pyrrol-3-yl]-1H-indol-1-yl]propyl ester (9CI)] | effective in blocking the replication of vaccinia virus in cells
Cc1cc(/N=C/c2cc(Cl)cc(Cl)c2O)no1 [XVI, (E)-2,4-dichloro-6-((5-methylisoxazol-3-ylimino)methyl)phenol] | effective in blocking the replication of vaccinia virus in cells
COC(=O)c1cccc2c1-c1ccccc1/C2=N\O [VIII, (E)-methyl 9-(hydroxyimino)-9H-fluorene-4-carboxylate] | effective in blocking the replication of vaccinia virus in cells
CCC/N=c1\cc(-c2ccccc2)oc2ccc(C)cc12 [III, (E)-N-(6-methyl-2-phenyl-4H-chromen-4-ylidene)propan-1-amine] | effective in blocking the replication of vaccinia virus in cells
O=C(Nc1ccccc1C(=O)O)OCC1c2ccccc2-c2ccccc21 [XXI, Benzoic acid, 2-[[(9H-fluoren-9-ylmethoxy)carbonyl]amino]-(9CI)] | effective in blocking the replication of vaccinia virus in cells

SMILES | Blocking the replication of vaccinia virus in cells
Cc1cc(N)c2cc(OCCOc3ccc4nc(C)cc(N)c4c3)ccc2n1 [XL, 6,6′-(ethane-1,2-diylbis(oxy))bis(2-methylquinolin-4-amine)] | effective in blocking the replication of vaccinia virus in cells
N=C1/C(=C/c2coc3ccccc3c2=O)C(=O)N=C2SC=NN12 [XIII, (Z)-5-imino-6-((4-oxo-4H-chromen-3-yl)methylene)-5H-[1,3,4]thiadiazolo[3,2-a]pyrimidin-7(6H)-one] | effective in blocking the replication of vaccinia virus in cells
O=C(C=Cc1ccco1)C=Cc1ccco1 [XXVI, 1,4-Pentadien-3-one, 1,5-di-2-furanyl-(9CI)] | effective in blocking the replication of vaccinia virus in cells
O=C1CSC(=S)N1/N=C/c1ccc(Cl)c([N+](=O)[O-])c1 [XXXIX, (E)-3-(4-chloro-3-nitrobenzylideneamino)-2-thioxothiazolidin-4-one] | effective in blocking the replication of vaccinia virus in cells
Cc1c(N=Cc2cc(Br)cc(Br)c2O)cccc1C(=O)O [XV, Benzoic acid, 3-[[(3,5-dibromo-2-hydroxyphenyl)methylene]amino]-2-methyl-(9CI)] | effective in blocking the replication of vaccinia virus in cells
O=C(O)c1ccccc1Nc1cccc(C(F)(F)F)c1 [IV, Flufenamic Acid] | effective in blocking the replication of vaccinia virus in cells
CC(=O)n1c2ccccc2c2nc(C)sc21 [XVII, 4H-Thiazolo[5,4-b]indole, 4-acetyl-2-methyl-(9CI)] | effective in blocking the replication of vaccinia virus in cells
CCN1CCCC1CNC(=O)c1ccc2c(c1)sc1nc(-c3cccc(OC)c3)cn12 (stereo not drawn) [XVIII, Imidazo[2,1-b]benzothiazole-7-carboxamide, N-(1-ethyl-2-pyrrolidyl)methyl-2-(3-methoxyphenyl)-(9CI)] | effective in blocking the replication of vaccinia virus in cells
CN1CCc2c(-c3cccs3)nc(OCc3ccccc3Br)c(C#N)c2C1 [XXXV, 3-(2-bromobenzyloxy)-6-methyl-1-(thiophen-2-yl)-5,6,7,8-tetrahydro-2,6-naphthyridine-4-carbonitrile] | effective in blocking the replication of vaccinia virus in cells
[H]/N=C1/SC(=Cc2ccco2)C(=O)N1c1nccs1 [XXXII, (E)-5-(furan-2-ylmethylene)-2-imino-3-(thiazol-2-yl)thiazolidin-4-one] | effective in blocking the replication of vaccinia virus in cells
CCN1C(=O)/C(=C/C=C/c2ccco2)C(=O)NC1=S [XXXI, (E)-1-ethyl-5-((E)-3-(furan-2-yl)allylidene)-2-thioxodihydropyrimidine-4,6(1H,5H)-dione] | effective in blocking the replication of vaccinia virus in cells
Cc1ccc2oc(-c3ccccc3)c/c(=N\CCO)c2c1 [II, (E)-2-(6-methyl-2-phenyl-4H-chromen-4-ylideneamino)ethanol] | effective in blocking the replication of vaccinia virus in cells
COC(=O)c1c(NC(=O)c2ccc(OC)cc2)sc2c1CCN(C(C)C)C2.Cl [XXVII, Methyl 6-isopropyl-2-(4-methoxyphenylamido)-4,5,6,7-tetrahydrothieno[2,3-c]pyridine-3-carboxylate hydrochloride] | effective in blocking the replication of vaccinia virus in cells
c1ccc2nc3c(nc2c1)c1ccccc1n3CCN1CCOCC1 [X, 6H-Indolo[2,3-b]quinoxaline-6-(2-morpholinoethy)] | effective in blocking the replication of vaccinia virus in cells
COc1ccc(Nc2cc(C(F)(F)F)ccc2Cl)c(C(=O)O)c1 [XXXIV, 2-(2-chloro-5-(trifluoromethyl)phenylamino)-5-methoxybenzoic acid] | effective in blocking the replication of vaccinia virus in cells

Biological target: vaccinia virus DNA synthesis (viral DNA polymerase and its associated factors) (Vaccinia virus, UniProt P06856)
Type: biochemical
Conditions: read-out: DNA Synthesis IC50

SMILES | IC50 [µM]
CN(C)CCc1cc2c(c3c1ccc1ccccc13)OCO2 | 5.4
CC1CCCC(C)N1CCNc1nc2ccccc2c2nc(-c3ccccc3)nn12 (stereo not drawn) | 7.3
CCN1CCN(c2ccc(Nc3ccnc4cc5ccccc5cc34)cc2)CC1 | 0.5
COc1ccc2c(c1)C=C/C(=C\c1sc3ccccc3[n+]1C)N2C | 4
CC[n+]1cc(/C=C2\SC=CN2C)c(C)c2cc(OC)c3ccccc3c21 | 3.5
CCOC(=O)c1cnc2c(C)c(C)ccc2c1NCCCN(C)C | 5
CC1=CC(C)(C)N=C(Nc2nc(C)c3cc(C)cc(C)c3n2)N1 | 5.3
COc1ccc2nc(NC(=N)N)nc(C)c2c1 | 7.4
OC(CN1CCNCC1)Cn1c2ccc(Br)cc2c2cc(Br)ccc21 (stereo not drawn) | 6.3
CCN(CC)CCCNc1nc2cc(OC)c(OC)cc2c2nc(-c3ccccc3)nn12 | 5.9
Cc1cc(NCCN2CCCCC2)c2ccc3ccccc3c2n1 | 6
BrCc1ccc(-c2noc(-c3ccncc3)n2)cc1 | 1.3
CN(C)CC/N=c1\cc(-c2ccccc2)oc2ccc(Cl)cc12 [drawing 93] | 6.7
O=C(O)c1ccc(CS(=O)(=O)c2ccccc2)o1 | 7.4
O=C(NCCCN1CCCC1)c1cc2c(Cl)nc3ccccc3c2s1 | 10
Cc1ccc2nc(Cl)c3cc(C(=O)N(CCN(C)C)Cc4ccco4)sc3c2c1 | 10
CC(C)Nc1ccc(Nc2ccnc3cc4ccccc4cc23)cc1 | 4.1
